The results in this text go back to patent US20050106195A1, “N-octanoyl amino acid composition for slimming the human body” (priority 2003, published 2005).

The experiment has as its system human adipocytes. Put plainly: In vitro lipolytic activity: free fatty acid release from isolated human adipocytes in suspension. To be noted: 2 h at 37° C.; for Free fatty acid concentration: mean of five assays, control 11.54 ± 2.71. It is filed as cell-based. The protocol:
This is because triglycerides are stored in the adipocytes and constitute the fat reserve. For this reserve to diminish, which is the desired aim when slimming products are used, the triglycerides must be hydrolysed so that the fatty acids can be removed from the cell. Hydrolysis of the triglycerides to nonesterified fatty acids and glycerol is called lipolysis.
The method described consists in incubating the products in the presence of human adipocytes in suspension, followed by the measurement of the nonesterified fatty acid level in the adipocyte incubation medium. The free fatty acid level thus reflects the hydrolysis of the triglycerides present in the adipocytes.
The test is carried out using human adipocytes isolated and prepared as a cellular suspension. The adipocytes are isolated from the subcutaneous abdominal adipose tissue recovered during plastic surgery operations (abdominal plastic surgery operations) performed on women. The cells are isolated from fresh tissue. The adipose tissue is isolated and dissociated by the action of a collagenase (SIGMA™, 1 mg/ml, 30 minutes at 37° C., gentle stirring). Collagenase digests the connective tissue present in the adipose tissue. After digestion, the cells are filtered and washed in an appropriate culture medium containing MEM medium free of phenol red, free of glutamine (SIGMA)+2.2 mg/ml of sodium bicarbonate (GIBCO)+50 IU of penicillin (BIOWHITTAKER™)+50 μg/ml of streptomycin (BIOWHITTAKER™)+1% (v/v) of L-glutamine (BIOWHITTAKER™)+0.5% of lipid-free serum albumin (SIGMA™). The adipocyte suspension is used immediately after its preparation.
The test products are diluted in the adipocyte culture medium. They are incubated with the cells in suspension for two hours at 37° C. (250 μl of product+250 μl of adipocyte suspension).
After the incubation, the cell lysis is checked visually by the presence of a lipid layer at the surface of the cellular suspension. The supernatant media are collected. The free fatty acids are assayed by spectrophotometry using a commercial kit (NEFA™ C kit, WAKO), with reference to a fatty acid calibration series. The lypolytic activity of the products is evaluated relative to a control group incubated in the presence of adipocytes and in the absence of product. The reactivity of the adipocytes is systematically checked for the measurement of the lipolytic activity of the reference products, caffeine (1,3,7-trimethyl-xanthine) and theophylline (1,3-dimethyl-2,6-dihydroxy-purine). Five assays are performed for each of the test products. The lipolytic activity of LIPACIDE™ C8G, which contains active material 100% N-octanoylglycine, was thus evaluated.

Setting [1] is: incubation concentration 0.0019 wt %/volume.
[2] abbreviates: incubation concentration 0.0001 wt %/volume.
The mark [3] stands for this setting: incubation concentration 0.0005 wt %/volume.
[4] abbreviates: incubation concentration 0.0010 wt %/volume.

The structures appear in SMILES notation.

As for `Cn1c(=O)c2c(ncn2C)n(C)c1=O` [Caffeine, 1,3,7-trimethyl-xanthine, reference compound], under setting [1], the “Lipolytic activity (compared with the control = 100)” value was determined as 131 and the “Free fatty acid concentration” value came out at 15.10 ± 4.11 µM.
Regarding `CCCCCCCC(=O)NCC(=O)O` [LIPACIDE ™ C8G, N-octanoylglycine], the “Lipolytic activity (compared with the control = 100)” value is, setting by setting: under setting [2], 206; under setting [3], 219; under setting [4], 223. Further, the “Free fatty acid concentration” value under setting [2] is 23.83 ± 5.11 µM, the “Free fatty acid concentration” value under setting [3] was found to be 25.30 ± 2.70 µM and the “Free fatty acid concentration” value under setting [4] came to 25.75 ± 0.86 µM.
